# Data taken from US20240116985A1, “STAPLED PEPTIDES AND METHODS THEREOF” (priority 2020, published 2024).
# Read-outs that look alike come from different tables or passages of the source.
# How the values were obtained:
# [1] = target: T1, full-length beta-Catenin (Uniprot ID P35222) (Homo sapiens, UniProt P35222); assay: Fluorescence polarization IC50 (beta-catenin / 5FAM-TCF4 10-53 competition); type: binding
# T1 construct: 10 nM full-length beta-Catenin (Uniprot ID P35222)
# T1 sequence (P35222 1-781): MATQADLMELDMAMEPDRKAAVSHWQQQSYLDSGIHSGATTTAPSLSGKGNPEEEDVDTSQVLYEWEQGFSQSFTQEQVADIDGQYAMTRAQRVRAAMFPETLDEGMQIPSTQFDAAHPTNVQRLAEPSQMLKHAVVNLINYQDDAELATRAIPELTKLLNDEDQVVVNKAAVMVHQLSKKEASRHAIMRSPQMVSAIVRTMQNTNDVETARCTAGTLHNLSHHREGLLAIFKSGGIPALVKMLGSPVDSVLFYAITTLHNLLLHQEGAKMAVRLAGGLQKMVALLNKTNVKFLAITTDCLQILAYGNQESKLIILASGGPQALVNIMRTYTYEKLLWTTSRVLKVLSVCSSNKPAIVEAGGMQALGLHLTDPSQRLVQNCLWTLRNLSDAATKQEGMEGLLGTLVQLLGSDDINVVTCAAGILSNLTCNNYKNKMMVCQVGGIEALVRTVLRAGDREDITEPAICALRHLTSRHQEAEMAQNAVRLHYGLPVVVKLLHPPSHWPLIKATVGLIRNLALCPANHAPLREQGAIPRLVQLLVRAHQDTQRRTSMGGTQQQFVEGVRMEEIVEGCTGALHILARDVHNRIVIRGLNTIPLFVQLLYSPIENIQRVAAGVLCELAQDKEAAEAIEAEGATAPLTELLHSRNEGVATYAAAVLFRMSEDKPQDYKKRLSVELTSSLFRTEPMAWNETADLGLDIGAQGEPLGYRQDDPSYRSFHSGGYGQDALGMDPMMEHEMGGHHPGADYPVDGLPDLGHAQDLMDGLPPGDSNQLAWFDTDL
# CHI Log D procedure = type: physicochemical; details: for CHI Log D: pH 7.4; for chromatographic logD: pH 7.4, CHI Log D
# Solubility in PBS = type: physicochemical
# Outline: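 Solubility is derived from HPLC peak areas: the ratio of the PBS supernatant peak to a 50 μM DMSO peptide peak, times 50 uM.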
# [2] = fluorescence polarization, beta-catenin, read-out: FP EC50
"IC50 [1, 2] [nM]",IC50 ([1]; read-out: beta-Catenin FP IC50) [nM],CHI Log D (CHI Log D procedure),Solubility (Solubility in PBS) [µM],chromatographic logD (CHI Log D procedure),SMILES
1020,1020,2.135,10,,"CC(=O)N1CCC[C@]12CC=CCCCC1(CCCC=CCCCOC(=O)N3CC[C@@](C(=O)N[C@@H](Cc4ccccc4Cl)C(=O)N[C@@H](Cc4csc5ccccc45)C(=O)N[C@H](C(N)=O)[C@@H](C)O)(C3)NC(=O)[C@H](CC(C)C)NC(=O)[C@H](Cc3ccccc3)NC(=O)[C@H](C)NC(=O)[C@H](C)NC(=O)[C@H](CCC(=O)O)NC(=O)[C@H](CC(=O)O)NC1=O)NC(=O)[C@H](CC(C)(C)C)NC(=O)[C@H](CC(=O)O)NC2=O (stereo partly drawn) [I-1070, Ac-PL3-Asp-Npg-B5-Asp-Glu-Ala-Ala-Phe-Leu-PyrS2-2C1F-BztA-Thr-NH2]"
1260,1260,2.218,33,,"CC(=O)N1CCC[C@]12CC=CCCCC1(CCCC=CCCCOC(=O)N3CC[C@@](C(=O)N[C@@H](Cc4ccccc4Cl)C(=O)N[C@@H](Cc4csc5ccccc45)C(=O)N[C@H](C(N)=O)[C@@H](C)O)(C3)NC(=O)[C@H](CC(C)C)NC(=O)[C@H](Cc3ccccc3)NC(=O)[C@H](C)NC(=O)[C@H](C)NC(=O)[C@H](CCC(=O)O)NC(=O)[C@H](CC(=O)O)NC1=O)NC(=O)[C@H](CC(C)(C)C)NC(=O)[C@H](CC(=O)O)NC2=O (stereo partly drawn) [I-1071, Ac-PL3-Asp-Npg-B5-Asp-Glu-Ala-Ala-Phe-Leu-PyrS2-2C1F-BztA-Thr-NH2]"
409,409,1.831,31,,"CC(=O)N1CCC[C@]12CC=CCCCC1(CCCC=CCCCOC(=O)N3CC[C@@](C(=O)N[C@@H](Cc4ccccc4)C(=O)N[C@@H](Cc4csc5ccccc45)C(=O)N[C@@H](CCC(N)=O)C(N)=O)(C3)NC(=O)[C@H](CC(C)C)NC(=O)[C@H](Cc3ccccc3)NC(=O)[C@H](C)NC(=O)[C@H](C)NC(=O)[C@H](CCC(=O)O)NC(=O)[C@H](CC(=O)O)NC1=O)NC(=O)[C@H](CC(C)(C)C)NC(=O)[C@H](CC(=O)O)NC2=O (stereo partly drawn) [I-1073, Ac-PL3-Asp-Npg-B5-Asp-Glu-Ala-Ala-Phe-Leu-PyrS2-Phe-BztA-Gln-NH2]"
498,498,1.92,34,,"CC(=O)N1CCC[C@]12CC=CCCCC1(CCCC=CCCCOC(=O)N3CC[C@@](C(=O)N[C@@H](Cc4ccccc4)C(=O)N[C@@H](Cc4csc5ccccc45)C(=O)N[C@@H](CCC(N)=O)C(N)=O)(C3)NC(=O)[C@H](CC(C)C)NC(=O)[C@H](Cc3ccccc3)NC(=O)[C@H](C)NC(=O)[C@H](C)NC(=O)[C@H](CCC(=O)O)NC(=O)[C@H](CC(=O)O)NC1=O)NC(=O)[C@H](CC(C)(C)C)NC(=O)[C@H](CC(=O)O)NC2=O (stereo partly drawn) [I-1074, Ac-PL3-Asp-Npg-B5-Asp-Glu-Ala-Ala-Phe-Leu-PyrS2-Phe-BztA-Gln-NH2]"
567,567,1.971,17,,"CC(=O)N1CCC[C@]12CC=CCCCC1(CCCC=CCCCOC(=O)N3CC[C@@](C(=O)N[C@@H](Cc4ccccc4Cl)C(=O)N[C@@H](Cc4csc5ccccc45)C(=O)N[C@@H](CCC(N)=O)C(N)=O)(C3)NC(=O)[C@H](CC(C)C)NC(=O)[C@H](Cc3ccccc3)NC(=O)[C@H](C)NC(=O)[C@H](C)NC(=O)[C@H](CC(=O)O)NC(=O)[C@H](CC(=O)O)NC1=O)NC(=O)[C@H](CC1CCCCC1)NC(=O)[C@H](CC(=O)O)NC2=O (stereo partly drawn) [I-1075, Ac-PL3-Asp-Cha-B5-Asp-Asp-Ala-Ala-Phe-Leu-PyrS2-2C1F-BztA-Gln-NH2]"
324,324,2.06,10,,"CC(=O)N1CCC[C@]12CC=CCCCC1(CCCC=CCCCOC(=O)N3CC[C@@](C(=O)N[C@@H](Cc4ccccc4Cl)C(=O)N[C@@H](Cc4csc5ccccc45)C(=O)N[C@@H](CCC(N)=O)C(N)=O)(C3)NC(=O)[C@H](CC(C)C)NC(=O)[C@H](Cc3ccccc3)NC(=O)[C@H](C)NC(=O)[C@H](C)NC(=O)[C@H](CCC(=O)O)NC(=O)[C@H](CC(=O)O)NC1=O)NC(=O)[C@H](CC1CCCCC1)NC(=O)[C@H](CC(=O)O)NC2=O (stereo partly drawn) [I-1077, Ac-PL3-Asp-Cha-B5-Asp-Glu-Ala-Ala-Phe-Leu-PyrS2-2C1F-BztA-Gln-NH2]"
352,352,2.162,27,,"CC(=O)N1CCC[C@]12CC=CCCCC1(CCCC=CCCCOC(=O)N3CC[C@@](C(=O)N[C@@H](Cc4ccccc4Cl)C(=O)N[C@@H](Cc4csc5ccccc45)C(=O)N[C@@H](CCC(N)=O)C(N)=O)(C3)NC(=O)[C@H](CC(C)C)NC(=O)[C@H](Cc3ccccc3)NC(=O)[C@H](C)NC(=O)[C@H](C)NC(=O)[C@H](CCC(=O)O)NC(=O)[C@H](CC(=O)O)NC1=O)NC(=O)[C@H](CC1CCCCC1)NC(=O)[C@H](CC(=O)O)NC2=O (stereo partly drawn) [I-1078, Ac-PL3-Asp-Cha-B5-Asp-Glu-Ala-Ala-Phe-Leu-PyrS2-2C1F-BztA-Gln-NH2]"
390,,,10,3.7,"CC(=O)N1CCC[C@]12CC=CCCCC1(CCCC=CCCCOC(=O)N3CC[C@@](C(=O)N[C@@H](Cc4ccccc4Cl)C(=O)N[C@@H](Cc4csc5ccccc45)C(=O)N[C@@H](CCC(N)=O)C(=O)NCCCCCCN=[N+]=[N-])(C3)NC(=O)[C@H](Cc3ccccc3)NC(=O)[C@H](Cc3ccccc3)NC(=O)[C@H](C)NC(=O)[C@H](C)NC(=O)[C@H](CN(CC(=O)O)CC(F)(F)F)NC(=O)[C@H](CC(=O)O)NC1=O)NC(=O)[C@H](CC(C)(C)C)NC(=O)[C@H](CC(=O)O)NC2=O (stereo partly drawn) [I-1085, Ac-PL3-Asp-Npg-B5-Asp-TfeGA-Ala-Ala-Phe-Phe-PyrS2-2C1F-BztA-Gln-6AzHex]"
43,43,3.22,48,,"CC(=O)N1CCC[C@]12CC=CCCCC1(CCCC=CCCCCCC[C@@](C)(C(=O)N[C@@H](Cc3ccccc3Cl)C(=O)N[C@@H](Cc3csc4ccccc34)C(=O)N[C@@H](C(N)=O)[C@H](C)O)NC(=O)[C@H]([C@@H](C)O)NC(=O)[C@H](Cc3ccccc3)NC(=O)[C@H](C)NC(=O)[C@H](C)NC(=O)[C@H](CCC(=O)O)NC(=O)[C@H](CC(=O)O)NC1=O)NC(=O)[C@H](CC(C)(C)C)NC(=O)[C@H](CC(=O)O)NC2=O (stereo partly drawn) [I-1093, Ac-PL3-Asp-Npg-B5-Asp-Glu-Ala-Ala-Phe-Thr-S8-2C1F-BztA-dThr-NH2]"
,100,,10,3.54,"CC(=O)N1CCC[C@]12CC=CCCCC1(CCCC=CCCCCCC[C@@](C)(C(=O)N[C@@H](Cc3ccccc3Cl)C(=O)N[C@@H](Cc3csc4ccccc34)C(=O)N[C@@H](C(N)=O)[C@H](C)O)NC(=O)[C@H](CC(C)C)NC(=O)[C@H](Cc3ccccc3)NC(=O)[C@H](C)NC(=O)[C@H](C)NC(=O)[C@H](CCC(=O)O)NC(=O)[C@H](CC(=O)O)NC1=O)NC(=O)[C@H](CC(C)(C)C)NC(=O)[C@H](CC(=O)O)NC2=O (stereo partly drawn) [I-1098, Ac-PL3-Asp-Npg-B5-Asp-Glu-Ala-Ala-Phe-Leu-S8-2ClF-BztA-dThr-NH2]"
,16,,10,2.39,"CC(=O)N1CCC[C@]12CC=CCCCC1(CCCC=CCCCOC(=O)N3CC[C@@](C(=O)N[C@@H](Cc4ccccc4F)C(=O)N[C@@H](Cc4csc5ccccc45)C(=O)N[C@@H](CO)C(N)=O)(C3)NC(=O)[C@H](CO)NC(=O)[C@H](Cc3ccccc3)NC(=O)[C@H](C)NC(=O)[C@H](C)NC(=O)[C@H](CC(=O)O)NC(=O)[C@H](CC(=O)O)NC1=O)NC(=O)[C@H](CC1CCCCC1)NC(=O)[C@H](CC(=O)O)NC2=O (stereo partly drawn) [I-1102, Ac-PL3-Asp-Cha-B5-Asp-Asp-Ala-Ala-Phe-Ser-PyrS2-2FF-BztA-Ser-NH2]"
